Measurements reported in ChEMBL document CHEMBL1201862, “PubChem BioAssay data set” (2004).
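How tested: cells in 96-well plates exposed to compound for 48 hours at five concentrations. Abbreviation: GI50, concentration required for 50% inhibition of growth.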 The source made the active and inactive calls. No stated cut-off is given here; in the data, active = GI50 up to about 1.1 µM and inactive = higher.

Key:
Experiment in all cases: inhibition of tumour cell growth, NCI panel, 48 h
[1] = tested on: U-251
[2] = tested on: HL-60
[3] = tested on: MDA-N
[4] = tested on: NCI-H226
[5] = tested on: IGROV-1
[6] = tested on: MCF7
[7] = tested on: Hs-578T
[8] = tested on: T47D
[9] = tested on: NCI-H522
[10] = tested on: NCI-H23
[11] = tested on: M14
[12] = tested on: CCRF-CEM
[13] = tested on: SN12C
[14] = tested on: HT-29
[15] = tested on: OVCAR-8
[16] = tested on: K562
[17] = tested on: OVCAR-4
[18] = tested on: KM12
[19] = tested on: SR
[20] = tested on: SK-OV-3
[21] = tested on: BT-549
[22] = tested on: 786-0
[23] = tested on: PC-3
[24] = tested on: A498
[25] = tested on: LOX IMVI
[26] = tested on: TK-10
[27] = tested on: NCI-H460
[28] = tested on: MDA-MB-435
[29] = tested on: ACHN
[30] = tested on: HOP-92
[31] = tested on: MDA-MB-231
[32] = tested on: CAKI-1
[33] = tested on: OVCAR-3
[34] = tested on: OVCAR-5
[35] = tested on: SK-MEL-5
[36] = tested on: HCT-15
[37] = tested on: COLO 205
[38] = tested on: EKVX
[39] = tested on: SF-268
[40] = tested on: DU-145
[41] = tested on: SW-620
[42] = tested on: NCI/ADR-RES
[43] = tested on: UO-31
[44] = tested on: SNB-19
[45] = tested on: RXF 393
[46] = tested on: SF-295
[47] = tested on: MOLT-4
[48] = tested on: SK-MEL-2
[49] = tested on: A549
[50] = tested on: SK-MEL-28
[51] = tested on: SNB-75
[52] = tested on: HCT-116
[53] = tested on: HOP-62
[54] = tested on: RPMI-8226
[55] = tested on: UACC-257
[56] = tested on: HCC 2998
[57] = tested on: UACC-62

For `NC(=O)C1=C(c2ccccc2)c2ccccc2C1=O`, the GI50 [1] was 18.3 µM (inactive), the GI50 [2] was 3.57 µM (inactive) and the GI50 [3] was 19.5 µM (inactive). For the same molecule, the GI50 [4] was 18.2 µM (inactive), the GI50 [5] was 16.1 µM (inactive) and the GI50 [6] was 16.1 µM (inactive). The GI50 [7] was 24.8 µM (inactive), the GI50 [8] was 19.1 µM (inactive) and the GI50 [9] was 18.6 µM (inactive). For the same molecule, the GI50 [10] was 18.1 µM (inactive), the GI50 [11] was 19.1 µM (inactive) and the GI50 [12] was 2.75 µM (inactive). For the same molecule, the GI50 [13] was 18.5 µM (inactive), the GI50 [14] was 16.6 µM (inactive) and the GI50 [15] was 15.6 µM (inactive). For the same molecule, the GI50 [16] was 38.1 µM (inactive), the GI50 [17] was 18.5 µM (inactive) and the GI50 [18] was 16.1 µM (inactive). For the same molecule, the GI50 [19] was 4.78 µM (inactive), the GI50 [20] was 18.3 µM (inactive) and the GI50 [21] was 16.9 µM (inactive). The GI50 [22] was 15.7 µM (inactive), the GI50 [23] was 17.8 µM (inactive) and the GI50 [24] was 28 µM (inactive). For the same molecule, the GI50 [25] was 7.98 µM (inactive), the GI50 [26] was 18.1 µM (inactive) and the GI50 [27] was 15.9 µM (inactive). For the same molecule, the GI50 [28] was 26.1 µM (inactive), the GI50 [29] was 11.4 µM (inactive) and the GI50 [30] was 17.7 µM (inactive). The GI50 [31] was 17.8 µM (inactive), the GI50 [32] was 16 µM (inactive) and the GI50 [33] was 11.8 µM (inactive). The GI50 [34] was 18.6 µM (inactive), the GI50 [35] was 16.3 µM (inactive) and the GI50 [36] was 12.3 µM. For the same molecule, the GI50 [37] was 22 µM (inactive), the GI50 [38] was 18.8 µM (inactive) and the GI50 [39] was 17.8 µM (inactive). The GI50 [40] was 17.1 µM (inactive), the GI50 [41] was 25.1 µM (inactive) and the GI50 [42] was 17.7 µM (inactive). The GI50 [43] was 18.8 µM (inactive), the GI50 [44] was 17.7 µM (inactive) and the GI50 [45] was 19.7 µM (inactive). The GI50 [46] was 23 µM (inactive), the GI50 [47] was 3.37 µM (inactive) and the GI50 [48] was 19.9 µM (inactive). The GI50 [49] was 18.6 µM (inactive), the GI50 [50] was 20.1 µM (inactive) and the GI50 [51] was 19.7 µM (inactive). The GI50 [52] was 16.9 µM (inactive), the GI50 [53] was 14.9 µM (inactive) and the GI50 [54] was 14.6 µM (inactive). For the same molecule, the GI50 [55] was 13.6 µM (inactive), the GI50 [56] was 15.8 µM (inactive) and the GI50 [57] was 17.4 µM (inactive).
